# In patent US20180074045A1, “SYSTEM AND METHOD FOR HIGH THROUGHPUT SCREENING OF CANCER CELLS” (CANNABICS PHARMACEUTICALS INC, priority 2015, published 2018):
# Tested on: U87MG glioblastoma cells
# Experiment: Cell viability imaging, extracts with various THC to CBD ratios
# Assay type: cell-based, human
# Details: extracts with various THC to CBD ratio, adjusted to 5 μM THC, 24 hours, 96-well; FIG. 6
# Description: Cells were harvested three days before exposure and seeded (about 50,000-200,000 cells/well) into a 24-well microplate. The medium was replaced in respective culture medium containing 0.5% FBS, and vehicle (DMSO) or cannabis extracts (1-10 μg/ml) were added to the medium for 24-48 hours in duplicates.
# The effect of cannabinoid compounds on cell viability was measured using high-content screening analysis. For example, differentiation of subpopulations of cells within the same well was analysed by distinguishing: live versus necrotic cells, early apoptotic cells and late apoptotic cells.
# Cells were imaged in ImageXpress micro (see FIG. 2), and analyzed using MetaXpress and the Cell Cycle module.
# Reference is now made to FIG. 6 showing images of glioblastoma cell lines treated with selected cannabis extracts comprising various THC to CBD ratio. In this study, 10,000 U87MG glioblastoma cells were plated into a 96-well microplate and treated with vehicle (DMSO) or cannabis extracts. It is noted that the extracts were delectated to reach 5 μM THC. Cells were imaged after 24 hours using the ImageXpress micro.
compound,measurement,value
"C=C(C)[C@@H]1CCC(C)=C[C@H]1c1c(O)cc(CCCCC)cc1O [CBD, cannabidiol]",U87MG glioblastoma cells viability,plays a role in reducing U87MG glioblastoma cells viability
